Laboratory results reported in patent US11180504B2 (ORCHID PHARMA LTD., priority 2016, dated 2021).
≈ marks a conversion by molar mass, not a printed value.

How the values were obtained:
[1] = system: methicillin-sensitive Staphylococcus aureus; experiment: MIC by broth micro-dilution (CLSI), methicillin-sensitive S. aureus; format: cell-based; conditions: Staphylococcus aureus, ATCC 29213 / MSSA, MSSA S. aureus ATCC29213; read-out: MIC
[2] = system: carbapenemase producing K. pneumoniae; experiment: MIC by broth micro-dilution (CLSI), carbapenemase producing K. pneumoniae; format: cell-based, Klebsiella pneumoniae; conditions: Klebsiella pneumoniae, ATCCBAA1705, KPC-2 K. pneumoniae ATCC BAA-1705; read-out: MIC
[3] = system: extended spectrum β lactamase (ESBL) SHV18 producing Klebsiella pneumoniae; experiment: MIC by broth micro-dilution (CLSI), ESBL SHV18 producing K. pneumoniae; format: cell-based; conditions: Klebsiella pneumoniae, ATCC700603, 22 h, ESBL +ve (SHV-18) K. pneumoniae ATCC700603; read-out: MIC
[4] = system: carbapenem sensitive Pseudomonas aeruginosa; experiment: MIC by broth micro-dilution (CLSI), carbapenem sensitive P. aeruginosa; format: cell-based; conditions: Pseudomonas aeruginosa, ATCC27853, Meropenem susceptible P. aeruginosa ATCC27853; read-out: MIC
[5] = system: carbapenem sensitive Escherichia coli; experiment: MIC by broth micro-dilution (CLSI), carbapenem sensitive E. coli; format: cell-based; conditions: Escherichia coli, ATCC25922, ESBL −ve E. coli ATCC25922; read-out: MIC

Structure (SMILES) | MIC [1] | MIC [2] | MIC [3] | MIC [4] | MIC [5]
CNCC(=O)N[C@H](C)[C@H]1C(=O)N2C(C(=O)O)=C(S[C@@H]3CN[C@H](C(=O)N4CC[C@@H](F)C4)C3)[C@H](C)[C@H]12 [Example 215] | 8 µg/mL (≈ 16.1 µM) | 8 µg/mL (≈ 16.1 µM) | 32 µg/mL (≈ 64.3 µM) | > 128 µg/mL | 2 µg/mL (≈ 4.02 µM)
CNCC(=O)N[C@H](C)[C@H]1C(=O)N2C(C(=O)O)=C(S[C@@H]3CN[C@H](C(=O)N4C[C@@H](N)C[C@H]4CNS(N)(=O)=O)C3)[C@H](C)[C@H]12 [Example 216] | 32 µg/mL (≈ 53.1 µM) | 4 µg/mL (≈ 6.64 µM) | 16 µg/mL (≈ 26.5 µM) | 4 µg/mL (≈ 6.64 µM) | 1 µg/mL (≈ 1.66 µM)
CNCC(=O)N[C@H](C)[C@H]1C(=O)N2C(C(=O)O)=C(S[C@@H]3CN[C@H](C(=O)N4C[C@H](N)[C@@H](F)C4)C3)[C@H](C)[C@H]12 [Example 217] | 16 µg/mL (≈ 31.2 µM) | 1 µg/mL (≈ 1.95 µM) | 1 µg/mL (≈ 1.95 µM) | 2 µg/mL (≈ 3.9 µM) | 0.5 µg/mL (≈ 0.975 µM)
CNCC(=O)N[C@H](C)[C@H]1C(=O)N2C(C(=O)O)=C(S[C@@H]3CN[C@H](C(=O)N4C[C@@H](O)[C@@H](N)C4)C3)[C@H](C)[C@H]12 [Example 218] | 16 µg/mL (≈ 31.3 µM) | 2 µg/mL (≈ 3.92 µM) | 2 µg/mL (≈ 3.92 µM) | 2 µg/mL (≈ 3.92 µM) | 1 µg/mL (≈ 1.96 µM)
C[C@@H](NC(=O)C(F)F)[C@H]1C(=O)N2C(C(=O)O)=C(S[C@@H]3CN[C@H](C(=O)N4CC[C@@H](CN)C4)C3)[C@H](C)[C@H]12 [Example 219] | 2 µg/mL (≈ 3.88 µM) | 4 µg/mL (≈ 7.76 µM) | 4 µg/mL (≈ 7.76 µM) | 4 µg/mL (≈ 7.76 µM) | 1 µg/mL (≈ 1.94 µM)
CNCC(=O)N[C@H](C)[C@H]1C(=O)N2C(C(=O)O)=C(S[C@@H]3CN[C@H](C(=O)N4CC[C@@H](CN)C4)C3)[C@H](C)[C@H]12 [Example 220] | 32 µg/mL (≈ 62.9 µM) | 2 µg/mL (≈ 3.93 µM) | 2 µg/mL (≈ 3.93 µM) | 2 µg/mL (≈ 3.93 µM) | 1 µg/mL (≈ 1.97 µM)
CNCC(=O)N[C@H](C)[C@H]1C(=O)N2C(C(=O)O)=C(S[C@@H]3CN[C@H](C(=O)N4CCN(CCN)CC4)C3)[C@H](C)[C@H]12 [Example 221] | 32 µg/mL (≈ 59.5 µM) | 2 µg/mL (≈ 3.72 µM) | 2 µg/mL (≈ 3.72 µM) | 4 µg/mL (≈ 7.44 µM) | 2 µg/mL (≈ 3.72 µM)
CNCC(=O)N[C@H](C)[C@H]1C(=O)N2C(C(=O)O)=C(S[C@@H]3CN[C@H](C(=O)N4CC[N+](C)(CCN)CC4)C3)[C@H](C)[C@H]12 [Example 222] | 64 µg/mL | 4 µg/mL | 8 µg/mL | 8 µg/mL | 2 µg/mL
C[C@@H](NC(=O)[C@@H]1CCCN1)[C@H]1C(=O)N2C(C(=O)O)=C(S[C@@H]3CN[C@H](CNS(N)(=O)=O)C3)[C@H](C)[C@H]12 [Example 225] | 16 µg/mL (≈ 31 µM) | 2 µg/mL (≈ 3.87 µM) | 32 µg/mL (≈ 61.9 µM) | 64 µg/mL (≈ 124 µM) | 1 µg/mL (≈ 1.94 µM)
C[C@@H](NC(=O)[C@H]1CCCN1)[C@H]1C(=O)N2C(C(=O)O)=C(S[C@@H]3CN[C@H](CNS(N)(=O)=O)C3)[C@H](C)[C@H]12 [Example 226] | 32 µg/mL (≈ 61.9 µM) | 8 µg/mL (≈ 15.5 µM) | 32 µg/mL (≈ 61.9 µM) | 64 µg/mL (≈ 124 µM) | 1 µg/mL (≈ 1.94 µM)
C[C@@H](NC(=O)[C@H]1CCCN1)[C@H]1C(=O)N2C(C(=O)O)=C(S[C@@H]3CN[C@H](C(=O)N(C)C)C3)[C@H](C)[C@H]12 [Example 227] | 64 µg/mL (≈ 133 µM) | 4 µg/mL (≈ 8.34 µM) | 8 µg/mL (≈ 16.7 µM) | 32 µg/mL (≈ 66.7 µM) | 2 µg/mL (≈ 4.17 µM)
C[C@@H](NC(=O)[C@@H]1CCCN1)[C@H]1C(=O)N2C(C(=O)O)=C(S[C@@H]3CN[C@H](C(=O)N(C)C)C3)[C@H](C)[C@H]12 [Example 228] | 64 µg/mL (≈ 133 µM) | 8 µg/mL (≈ 16.7 µM) | 4 µg/mL (≈ 8.34 µM) | 64 µg/mL (≈ 133 µM) | 1 µg/mL (≈ 2.09 µM)
C[C@@H](NC(=O)CN(C)C=N)[C@H]1C(=O)N2C(C(=O)O)=C(S[C@@H]3CN[C@H](C(=O)N4CC[C@@H](N)C4)C3)[C@H](C)[C@H]12 [Example 229] | 128 µg/mL (≈ 245 µM) | 64 µg/mL (≈ 123 µM) | 64 µg/mL (≈ 123 µM) | 32 µg/mL (≈ 61.3 µM) | 16 µg/mL (≈ 30.7 µM)
C[C@@H](NC(=O)CN(C)C(=N)N)[C@H]1C(=O)N2C(C(=O)O)=C(S[C@@H]3CN[C@H](C(=O)N4CC[C@@H](N)C4)C3)[C@H](C)[C@H]12 [Example 230] | 32 µg/mL (≈ 59.6 µM) | 4 µg/mL (≈ 7.45 µM) | 8 µg/mL (≈ 14.9 µM) | 8 µg/mL (≈ 14.9 µM) | 1 µg/mL (≈ 1.86 µM)
C[C@@H](NC(=O)CN(C)C(=N)N)[C@H]1C(=O)N2C(C(=O)O)=C(S[C@@H]3CN[C@H](C(=O)N(C)C)C3)[C@H](C)[C@H]12 [Example 231] | 32 µg/mL (≈ 64.6 µM) | 2 µg/mL (≈ 4.04 µM) | 4 µg/mL (≈ 8.07 µM) | 16 µg/mL (≈ 32.3 µM) | 1 µg/mL (≈ 2.02 µM)
COCc1cn([C@H](C)[C@H]2C(=O)N3C(C(=O)O)=C(S[C@@H]4CN[C@H](C(=O)N5CC[C@@H](N)C5)C4)[C@H](C)[C@H]23)nn1 [Example 232] | 2 µg/mL (≈ 3.85 µM) | 8 µg/mL (≈ 15.4 µM) | 8 µg/mL (≈ 15.4 µM) | > 128 µg/mL | 2 µg/mL (≈ 3.85 µM)
